In ChEMBL document CHEMBL1140558, “An atom efficient, solvent-free, green synthesis and antimycobacterial evaluation of 2-amino-6-methyl-4-aryl-8-[(E)-arylmethylidene]-5,6,7,8-tetrahydro-4H-pyrano[3,2-c]pyridine-3-carbonitriles” (2007):
Values after ≈ are worked out from the molar mass of the structure shown.

The compounds below were run on Mycobacterium tuberculosis (assay: Antimycobacterial activity against multidrug-resistant Mycobacterium tuberculosis by agar dilution method).
Assay type: functional

Point of comparison: `COc1c(N2CCNC(C)C2)c(F)cc2c(=O)c(C(=O)O)cn(C3CC3)c12` (stereo not drawn) [GATIFLOXACIN], MIC 8.34 µM (≈ 3.13 µg/mL). Against it:
- CN1CC2=C(OC(N)=C(C#N)C2c2ccc(F)cc2)/C(=C/c2ccc(F)cc2)C1 (stereo not drawn) — 8.6-fold lower, 0.97 µM (≈ 0.38 µg/mL)
- CN1CC2=C(OC(N)=C(C#N)C2c2cccc(F)c2)/C(=C/c2cccc(F)c2)C1 (stereo not drawn) — 4.2-fold lower, 1.99 µM (≈ 0.779 µg/mL)
- CN1CC2=C(OC(N)=C(C#N)C2c2ccc(N(C)C)cc2)/C(=C/c2ccc(N(C)C)cc2)C1 (stereo not drawn) — 19-fold lower, 0.43 µM (≈ 0.19 µg/mL)
- CN1CC2=C(OC(N)=C(C#N)C2c2ccccc2Cl)/C(=C/c2ccccc2Cl)C1 (stereo not drawn) — 2.3-fold lower, 3.68 µM (≈ 1.56 µg/mL)
- CN1CC2=C(OC(N)=C(C#N)C2c2cccc([N+](=O)[O-])c2)/C(=C/c2cccc([N+](=O)[O-])c2)C1 (stereo not drawn) — 4.8-fold lower, 1.75 µM (≈ 0.78 µg/mL)
- CN1CC2=C(OC(N)=C(C#N)C2c2ccc(Cl)cc2)/C(=C/c2ccc(Cl)cc2)C1 (stereo not drawn) — 4.5-fold lower, 1.84 µM (≈ 0.781 µg/mL)
- NNC(=O)c1ccncc1 [ISONIAZID] — 5.5-fold higher, 45.6 µM (≈ 6.25 µg/mL)
